Molecular target: Metabotropic glutamate receptor 1 (Rattus norvegicus, UniProt P23385)
Test: Displacement of […] from rat mGlu1 receptor expressed in CHO-TREx cell membranes after 30 mins by liquid scintillation spectrometric analysis

Metabotropic glutamate receptor 1, sequence (P23385 whole entry): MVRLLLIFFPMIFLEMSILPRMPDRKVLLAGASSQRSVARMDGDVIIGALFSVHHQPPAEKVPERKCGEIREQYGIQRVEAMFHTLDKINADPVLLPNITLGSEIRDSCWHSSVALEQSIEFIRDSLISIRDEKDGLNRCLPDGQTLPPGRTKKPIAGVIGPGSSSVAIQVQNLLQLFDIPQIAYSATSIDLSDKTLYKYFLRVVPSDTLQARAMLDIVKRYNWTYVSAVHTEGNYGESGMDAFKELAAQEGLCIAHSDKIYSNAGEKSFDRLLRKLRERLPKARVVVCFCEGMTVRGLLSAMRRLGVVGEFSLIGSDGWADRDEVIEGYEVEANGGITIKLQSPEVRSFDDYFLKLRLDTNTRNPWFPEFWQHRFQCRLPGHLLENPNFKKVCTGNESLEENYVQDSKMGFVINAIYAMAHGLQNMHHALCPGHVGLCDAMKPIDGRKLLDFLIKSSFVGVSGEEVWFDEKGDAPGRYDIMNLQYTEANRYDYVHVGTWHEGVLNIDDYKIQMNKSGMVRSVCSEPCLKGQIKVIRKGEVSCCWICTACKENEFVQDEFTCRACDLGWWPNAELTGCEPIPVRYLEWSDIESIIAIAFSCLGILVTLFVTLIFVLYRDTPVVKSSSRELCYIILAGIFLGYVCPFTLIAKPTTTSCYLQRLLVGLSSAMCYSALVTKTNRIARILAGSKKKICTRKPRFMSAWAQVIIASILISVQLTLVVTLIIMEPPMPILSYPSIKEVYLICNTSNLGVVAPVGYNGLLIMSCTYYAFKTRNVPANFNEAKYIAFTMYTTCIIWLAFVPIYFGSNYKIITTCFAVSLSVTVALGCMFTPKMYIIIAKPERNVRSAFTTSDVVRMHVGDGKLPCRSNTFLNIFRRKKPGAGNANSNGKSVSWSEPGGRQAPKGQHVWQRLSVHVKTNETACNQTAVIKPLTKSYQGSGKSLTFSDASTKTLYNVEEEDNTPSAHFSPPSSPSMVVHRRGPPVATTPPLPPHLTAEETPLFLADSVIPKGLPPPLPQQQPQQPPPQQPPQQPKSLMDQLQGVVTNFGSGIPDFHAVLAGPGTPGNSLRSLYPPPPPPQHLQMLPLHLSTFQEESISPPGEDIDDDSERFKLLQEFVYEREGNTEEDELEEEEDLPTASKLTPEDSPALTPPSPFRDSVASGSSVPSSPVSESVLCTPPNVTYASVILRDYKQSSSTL

Compound `Cc1nc(C#Cc2cccnc2)cs1` [3-(2-(2-methylthiazol-4-yl)ethynyl)pyridine] has a Ki greater than 10 µM.
